Counter-ions that a name gives are not always drawn.
Key:
USP7 = molecular target: T1, USP7 (Homo sapiens, UniProt Q93009, C315A); experiment: Inhibition of USP7 by Fluorescence Intensity (FLINT) readings, Ubiquitin-Rhodamine-110 substrate; type: biochemical; conditions: 0.25 nM His-His-USP7 (aa208-560), 60 minutes at 30° C. preincubation; Ki determined from IC50 according to Cer et al.
T1 construct: 0.25 nM His-His-USP7 (aa208-560, |C315A|) was incubated with compound; His-His (N)
Procedure: USP7 activity was measured using Rhodamine-110 c-terminal labelled Ubiquitin as a substrate (UbiQ Bio), Incubation with USP7 results in the release of Rhodamine-110 leading to an increase in fluorescence which can be used in the continuous measurement of USP7 activity.
The USP7 reactions were performed in a 50 μL volume, in 384 well black solid low binding plates (Corning #3575). The reaction buffer consisted of 100 mM Bicine pH 8.0, 0.01% TritonX 100, 1 mM TCEP, and 10% DMSO.
0.25 nM His-His-USP7 (aa208-560, |C315A|) was incubated with compound (final concentration 10% DMSO) for 60 minutes at 30° C. The reaction was then initiated by the addition of 50) nM Ubiquitin-Rhodamine-110 substrate or 4 μM Ubiquitin-Rhodamine-110 substrate and the plate read every 3 minutes for 21 minutes to measure the release of Rhodamine-110. Fluorescence Intensity (FLINT) readings were measured using a Biomek Neo plate reader (Ex.485 nm, Em.535 nm).
The inhibition of increasing doses of compound was expressed as a percentage reduction in kinetic rate compared to the kinetic rates established between ‘DMSO only’ and ‘total inhibition’ controls (no USP7). The inhibitory concentrations that gave a 50% reduction in kinetic rate (IC50) were determined, from 11-point dose response curves, in XL-Fit using a 4-Parameter Logistic Model 205 (Sigmoidal Dose-Response Model). The K, values were determined from the IC50 values according to Cer et al. Nucleic Acids Res. 2009, July 1; 37 (WebServer issue): W441-W445.

[1] = system: Z138 mantle cell lymphoma tumour cell lines; experiment: In vitro cytotoxicity, MTT assay; type: cell-based; conditions: Z138 cells, exposed to the test compounds for 96 hours
Procedure: The cytotoxicity studies were evaluated by MTT [3-(4,5-dimethylthiaxol-2-yl)-2,5-diphenyltetrazolium bromide|assay and carried out on Z138 mantle cell lymphoma tumour cell lines. The cells are distributed onto microplates and exposed to the test compounds for 96 hours. MTT is then added for 4 hours and converted by NAD(P)H-dependent cellular oxidoreductase enzymes in forma/an, which has a purple color. The viable cell number is proportional to the production of formazan salts and cell viability can be quantified by the absorbance of the solution at 540 nm with a spectrophotometer (Carmichael et al., Cancer Res. 1987, 47, 936-942).

T1 sequence (Q93009 208-560 C315A): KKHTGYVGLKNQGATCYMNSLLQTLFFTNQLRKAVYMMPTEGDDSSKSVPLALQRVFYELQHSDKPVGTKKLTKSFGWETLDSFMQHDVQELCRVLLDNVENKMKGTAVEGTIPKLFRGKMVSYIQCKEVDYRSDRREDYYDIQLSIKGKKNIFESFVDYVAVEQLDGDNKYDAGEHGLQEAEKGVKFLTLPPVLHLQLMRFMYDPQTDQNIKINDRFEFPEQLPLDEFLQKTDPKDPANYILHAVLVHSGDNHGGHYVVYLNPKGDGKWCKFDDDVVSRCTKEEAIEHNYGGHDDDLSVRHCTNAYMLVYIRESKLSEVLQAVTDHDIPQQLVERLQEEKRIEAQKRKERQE

Molecule | Ki (USP7) | IC50 ([1]; Homo sapiens, Z-138) | IC50 [1]
Cc1nc(C2CCOCC2)sc1C(=O)N1CC[C@@H](C(=O)N2CCC(O)(Cn3cnc(Oc4ccc(F)cc4)c(N)c3=O)CC2)[C@H](c2ccccc2)C1 [Example 191, 5-amino-6-(4-fluorophenoxy)-3-[[4-hydroxy-1-[(3R,4R)-1-(4-methyl-2-tetrahydropyran-4-yl-thiazole-5-carbonyl)-3-phenyl-piperidine-4-carbonyl]-4-piperidyl]methyl]pyrimidin-4-one] | 17.7 nM | 20.1 nM | 
5-amino-3-[[(3SR,4RS)-3-fluoro-4-hydroxy-1- (3R,4R)-1-[4-methyl-2-(6-methyl-3-pyridyl)thiazole-5-carbonyl]-3-phenyl-piperidine-4carbonyl]-4-piperidyl]methyl]-6-(4-fluorophenoxy)pyrimidin-4-one and 5-amino-3-[[(3RS,4SR)-3-fluoro-4-hydroxy-1-(3R,4R)-1-[4-methyl-2-(6-methyl-3-pyridyl)thiazole-5-carbonyl]-3-phenyl-piperidine-4-carbonyl]-4-piperidyl]methyl]-6-(4-fluorophenoxy)pyrimidin-4-one [Example 197] | 14 nM |  | 9.7 nM
Cc1ncc(C(=O)N2CC[C@@H](C(=O)N3CCC(O)(Cn4cnc(Oc5ccc(F)cc5)c(N)c4=O)CC3)[C@H](c3ccccc3)C2)s1 [Example 49] | 24.9 nM | 31 nM | 
Nc1c(Oc2ccc(F)cc2)ncn(CC2(O)CCN(C(=O)[C@@H]3CCN(C(=O)C4(c5ccccc5)CC4)C[C@H]3c3ccccc3)CC2)c1=O [Example 132] | 35.4 nM | 47.8 nM | 
Nc1c(Oc2ccc(F)cc2)ncn(CC2(O)CCN(C(=O)[C@@H]3CCN(C(=O)Nc4ccccc4F)C[C@H]3c3ccccc3)CC2)c1=O [Example 89] | 20 nM | 26 nM | 
Nc1c(Oc2ccc(F)cc2)ncn(CC2(O)CCN(C(=O)[C@@H]3CCN(C(=O)c4cncc(Cl)c4)C[C@H]3c3ccccc3)CC2)c1=O [Example 133, 5-amino-3-[[1-[(3R,4R)-1-(5-chloropyridine-3-carbonyl)-3-phenyl-piperidine-4-carbonyl]-4-hydroxy-4-piperidyl]methyl]-6-(4-fluorophenoxy)pyrimidin-4-one] | 1.52 nM | 9.8 nM | 
COc1cc(Oc2ncn(C[C@@]3(O)CCN(C(=O)[C@@H]4CCN(Cc5ccnc(C)n5)C[C@H]4c4ccccc4)CC3(F)F)c(=O)c2N)ccc1Cl [Example 182] | 40.4 nM | 9.95 nM | 
Nc1c(Oc2ccc(F)cc2)ncn(CC2(O)CCN(C(=O)[C@@H]3CCN(C4(c5cccc(Br)c5)COC4)C[C@H]3c3ccccc3)CC2)c1=O [Example 170, 5-amino-3-[[1-[(3R,4R)-1-[3-(3-bromophenyl)oxetan-3-yl]-3-phenyl-piperidine-4-carbonyl]-4-hydroxy-4-piperidyl]methyl]-6-(4-fluorophenoxy)pyrimidin-4-one] | 78.5 nM |  | 
CC(C)(C)OC(=O)N1CC[C@@H](C(=O)N2CCC(O)(Cn3cnc(Oc4cccnc4)c(N)c3=O)CC2)[C@H](c2ccccc2)C1 [Example 137, tert-butyl (3R,4R)-4-[4-[[5-amino-6-oxo-4-(3-pyridyloxy)pyrimidin-1-yl]methyl]-4-hydroxy-piperidine-1-carbonyl]-3-phenyl-piperidine-1-carboxylate] | 226 nM |  | 
Nc1c(Oc2cccc(OC(F)(F)F)c2)ncn(CC2(O)CCN(C(=O)[C@@H]3CCNC[C@H]3c3ccccc3)CC2)c1=O [Example 19, 5-amino-3-[[4-hydroxy-1-[(3R,4R)-3-phenylpiperidine-4-carbonyl]-4-piperidyl]methyl]-6-[3-(trifluoromethoxy)phenoxy]pyrimidin-4-one hydrochloride] | 344 nM |  | 
COc1ccc(NC(=O)N2CC[C@@H](C(=O)N3CCC(O)(Cn4cnc(Oc5ccc(F)cc5)c(N)c4=O)CC3)[C@H](c3ccccc3)C2)c(OC)c1 [Example 82] | 16 nM |  | 
Nc1c(Oc2ccc(F)cc2)ncn(C[C@@]2(O)CCN(C(=O)[C@@H]3CCN(C(=O)C4CC(c5ccccc5)C4)C[C@H]3c3ccccc3)CC2(F)F)c1=O (single isomer, unassigned) [Example 71] | 112 nM |  | 
COc1cc(Oc2ncn(CC3(O)CCN(C(=O)[C@@H]4CCN(C(=O)OC(C)(C)C)C[C@H]4c4ccccc4)CC3)c(=O)c2N)ccc1F [Example 4, tert-butyl (3R,4R)-4-[4-[[5-amino-4(4-fluoro-3-methoxy-phenoxy)-6-oxo-pyrimidin-1-yl]methyl]-4-hydroxy-piperidine-1-carbonyl]-3-phenyl-piperidine-1-carboxylate] | 115 nM |  | 
Nc1c(Oc2ccc(F)cc2)ncn(C[C@@]2(O)CCN(C(=O)[C@@H]3CCN(C(=O)C4CC(c5ccccc5)C4)C[C@H]3c3ccccc3)CC2(F)F)c1=O (single isomer, unassigned) [Example 72] | 235 nM |  | 
Nc1c(Oc2ccc(F)cc2)ncn(CC2(O)CCN(C(=O)[C@@H]3CCN(C(=O)c4ccc5c(c4)C(=O)C(=O)N5)C[C@H]3c3ccccc3)CC2)c1=O [Example 58, 5-[(3R,4R)-4-[4-[[5-amino-4-(4-fluorophenoxy)-6-oxo-pyrimidin-1-yl]methyl]-4-hydroxy-piperidine-1-carbonyl]-3-phenyl-piperidine-1-carbonyl]indoline-2,3-dione] | 6.51 nM |  | 
CC(C)(C)OC(=O)N1CC[C@@H](C(=O)N2CCC(O)(Cn3cnc(Oc4ccc(Cl)c(F)c4)c(N)c3=O)CC2)[C@H](c2ccccc2)C1 [Example 3, tert-butyl (3R,4R)-4-[4-[[5-amino-4-(4-chloro-3-fluoro-phenoxy)-6-oxo-pyrimidin-1-yl]methyl]-4-hydroxy-piperidine-1-carbonyl]-3-phenyl-piperidine-1-carboxylate] | 125 nM |  | 
COc1ccc(C2(N3CC[C@@H](C(=O)N4CCC(O)(Cn5cnc(Oc6ccc(F)cc6)c(N)c5=O)CC4)[C@H](c4ccccc4)C3)COC2)cc1 [Example 156, 5-amino-6-(4-fluorophenoxy)-3-[[4-hydroxy-1-[(3R,4R)-1-[3-(4-methoxyphenyl)oxetan-3-yl]-3-phenyl-piperidine-4-carbonyl]-4-piperidyl]methyl]pyrimidin-4-one] | 140 nM |  | 
Nc1c(Oc2ccc(F)cc2)ncn(CC2(O)CCN(C(=O)[C@@H]3CCN(C(=O)c4cccc(C5CCCNC5)c4)C[C@H]3c3ccccc3)CC2)c1=O (stereo partly drawn) [Example 116, 5-amino-6-(4-fluorophenoxy)-3-[(4-hydroxy-1-((3R,4R)-3-phenyl-1-[3-(piperidin-3-yl)benzoyl]piperidine-4-carbonyl}piperidin-4-yl)methyl]pyrimidin-4(3H)-one] | 8 nM |  | 
Nc1c(Oc2ccc(Cl)cc2)ncn(CC2(O)CCN(C(=O)[C@@H]3CCNC[C@H]3c3ccccc3)CC2)c1=O [Example 14, 5-amino-6-(4-chlorophenoxy)-3-[[4-hydroxy-1-[(3R,4R)-3-phenylpiperidine-4-carbonyl]-4-piperidyl]methyl]pyrimidin-4-one hydrochloride] | 115 nM |  | 
Nc1c(Oc2ccc(Cl)c(F)c2)ncn(CC2(O)CCN(C(=O)[C@@H]3CCNC[C@H]3c3ccccc3)CC2)c1=O [Example 16] | 232 nM |  | 
Nc1c(Oc2ccc(F)cc2)ncn(CC2(O)CCN(C(=O)[C@@H]3CCN(C(=O)Nc4nc(C(F)(F)F)cs4)C[C@H]3c3ccccc3)CC2)c1=O [Example 88, (3R,4R)-4-[4-[[5-amino-4-(4-fluorophenoxy)-6-oxo-pyrimidin-1-yl]methyl]-4-hydroxy-piperidine-1-carbonyl]-3-phenyl-N-[4-(trifluoromethyl)thiazol-2-yl]piperidine-1-carboxamide] | 187 nM |  | 
COc1cc(Oc2ncnc(OC[C@@]3(O)CCN(C(=O)[C@@H]4CCN(C(=O)OC(C)(C)C)C[C@H]4c4ccccc4)CC3(F)F)c2N)ccc1F [Example 135] | 206 nM |  | 
COc1cc(Oc2ncn(C[C@@]3(O)CCN(C(=O)[C@@H]4CCN(Cc5ccncn5)C[C@H]4c4ccccc4)CC3(F)F)c(=O)c2N)ccc1F [Example 220, 5-amino-3-[[(4S)-3,3-difluoro-4-hydroxy-1-[(3R,4R)-3-phenyl-1-(pyrimidin-4-ylmethyl)piperidine-4-carbonyl]-4-piperidyl]methyl]-6-(4-fluoro-3-methoxy-phenoxy)pyrimidin-4-one] | 98.2 nM |  | 

— patent US20210355106A1, “NEW AMINO-PYRIMIDONYL-PIPERIDINYL DERIVATIVES, A PROCESS FOR THEIR PREPARATION AND PHARMACEUTICAL COMPOSITIONS CONTAINING THEM” (LES LABORATOIRES SERVIER, priority 2018, published 2021)
